# Results published in PMC5748754, “Elucidating the Skin Delivery of Aglycone and Glycoside Flavonoids: How the Structures Affect Cutaneous Absorption” (Nutrients, 2017).
# Several values for one entry are separate records, joined by “and”; a condition that tells them apart may be missing. Identical values can stand only once. Entries after “also recorded” stand apart in the source; their conditions may differ.
# Experiments:
# [1] = Capacity factor (log K') by HPLC; format: physicochemical; details: HPLC C18, methanol/pH 2 phosphate buffer 1:1
# Experimental: The HPLC setup for the calculation of log K’ was an HPLC system (7-series, Hitachi, Tokyo, Japan) with a LiChrospher® C18 column (200 × 4.6 mm, Merck, Darmstadt, Germany). The mobile phase consisted of a mixture of methanol and pH 2 phosphate buffer solution (1:1). The flow rate and wavelength for determination were 1 mL/min (L-7110 pump) and 256 nm (L-7455 diode array detector), respectively. The retention times of flavonoids were detected, and the log K’ was computed as log [(tr − t0)/t0], where tr and t0 were the retention time of the flavonoid and the nonretained solvent peak, respectively.
# [2] = Partition coefficient (log P), n-octanol/water; format: physicochemical; details: 37 °C
# Experimental: Flavonoids in methanol (0.5 mg/mL) were pipetted into a tube at a volume of 1 mL. Methanol was then evaporated under vacuum. In the amount of 1 mL of each, n-Octanol and water were incorporated into the tube. After being shaken for 24 h at 37 °C, the tube was centrifugated at 10,000× g for 10 min. The flavonoid content in both phases was analyzed by HPLC. The log P was calculated as log (flavonoid content in n-octanol/flavonoid content in water).
# [3] = Saturated solubility in 20% PEG400/pH 7.4 buffer; format: physicochemical; details: for solubility at 2 h: aqueous with cosolvent or surfactant or cyclodextrin, thermodynamic from solid, 20% PEG400/pH 7.4 buffer, 37 °C
# Experimental: The suspension was then centrifuged at 10,000× g for 10 min. The supernatant was filtered across the polyvinylidene fluoride membrane with a pore size of 0.45 µm. The resulting supernatant was analyzed by HPLC to record the solubility (mM).
# [4] = In vitro Franz cell skin absorption, nude mouse skin; format: in vitro ADME; details: for S value (CSD/PC) / S value (skin deposition/flux) / flux: the sentence does not separate nude mouse and pig skin; for selectivity ratio at 24 h, 6 mM / skin deposition: nude mouse skin; for selectivity ratio at 24 h, 6 mM: read-out: S value (dermal/transdermal selectivity index, skin deposition/flux); for skin deposition: equivalent dose 6 mM, 24 h; for selectivity ratio at 24 h, 6 mM / S value (skin deposition/flux) / flux: dose 6 mM
# Experimental: (§1) The cutaneous absorption of flavonoids was assessed using a Franz diffusion cell system. The excised animal skin or cellulose membrane was mounted between the donor and receptor compartments with the SC facing up toward the donor. The receptor was filled with 30% ethanol/pH 7.4 buffer and placed on a magnetic stirring plate. The effective permeation area of the cell was 0.785 cm^2. The stirring rate and temperature of the receptor were 600 rpm and 37 °C, respectively. Saturated solution or a 6 mM flavonoid suspension was prepared in 20% PEG400/pH 7.4 buffer to be loaded into the donor compartment. A 300-µL aliquot in the receptor was collected at determined durations, followed by an immediate replacement with fresh receptor medium. The amount of flavonoid in the receptor was determined by HPLC. The skin was removed from the cell after a 24-h application. After being washed with water, the skin sample was weighed and positioned in a vial with 1 mL methanol. MagNA Lyser (Roche) was used to homogenize the skin. The homogenate was centrifuged at 10,000× g for 10 min. The supernatant was analyzed by HPLC to quantify the flavonoid deposition in the skin reservoir.
# In the cutaneous absorption experiment, flavonoid deposition in the skin was estimated as the molar amount per mg of skin (nM/mg). In the case of the skin deposition from the saturated solution, the calibrated skin deposition (CSD) was measured as flavonoid deposition divided by the applied dose (saturated solubility). The flux (nM/cm^2/h) was estimated by the slope of the penetrated amount–time curve. The permeability coefficient (PC) was calculated from the flux divided by the saturated solubility of the flavonoids. The dermal/transdermal selectivity index (S value) was calculated using an equation of skin deposition/flux (for equivalent dose application) or CSD/PC (for saturated dose application).
# [5] = Franz cell skin deposition in SC-disrupted nude mouse skin; format: in vitro ADME; details: 6 mM; for skin deposition after the SC's removal / Skin deposition, fold versus intact skin (SC-stripping): SC-stripped nude mouse skin
# Experimental: The full-thickness dorsal skin of the nude mouse was excised after sacrifice. The SC-stripped skin was obtained by stripping the skin surface 20 times with adhesive tape (Scotch®, 3M, Maplewood, MN, USA). The delipidized skin was achieved by incubating the skin surface onto a chloroform/methanol solution (2:1) for 2 h. To prepare the desebumed skin, the SC side of the skin was washed with cold hexane (4 °C) five times, based on the procedure of the previous study. The skin’s surface was then treated with a 40% ethanol/water solution for 2 h, a process that successfully denatured the skin’s proteins.
# as §1
# [6] = system: fMLF-activated human neutrophils (O2•– release); experiment: Superoxide anion (O2•–) inhibition in fMLF-activated human neutrophils; format: cell-based; details: flavonoids at 3 µM, fMLF/cytochalasin B-activated human neutrophils; for inhibition at 3 µM: Homo sapiens, Neutrophil
# Source text: (§2) The protocol was approved by the Institutional Review Board at Chang Gung Memorial Hospital, and written informed consent was obtained from all volunteers (201600500B0C101). Whole blood was withdrawn from healthy volunteers between 20 and 30 years of age. Human neutrophils were isolated using a typical method of dextran sedimentation prior to centrifugation in a Ficoll-Hypaque gradient and hypotonic lysis of erythrocytes. The granulocyte layer was harvested and suspended in calcium-free HBSS at pH 7.4, which was maintained at 4 °C until use.
# (§3) The reduction of ferricytochrome c was utilized for measuring the superoxide anion (O2^•–) release from the neutrophils. The human neutrophils (6 × 10^5 cells/mL) were incubated with 0.5 mg/mL ferricytochrome c and 1 mM CaCl2 at 37 °C, and were then treated with flavonoids (3 µM) in DMSO for 10 min. Neutrophils were stimulated by adding 0.1 µM fMLF with cytochalasin B (1 µg/mL). The reduction of ferricytochrome c was monitored by the absorbance at 550 nm using a U3010 ultraviolet/visible spectrophotometer (Hitachi, Tokyo, Japan). The human neutrophils were equilibrated with an elastase substrate (MeO-Suc-Ala-Ala-Pro-Val-p-nitroanilide, 100 µM) at 37 °C for 2 min. Flavonoids at a concentration of 3 µM were added into the neutrophil suspension for 10 min. The cells were activated by fMLF and cytochalasin B for a further 10 min. Elastase release was detected by measuring the change of absorbance at 405 nm.
# [7] = system: fMLF-activated human neutrophils (elastase release); experiment: Elastase release inhibition in fMLF-activated human neutrophils; format: cell-based; details: flavonoids at 3 µM, fMLF/cytochalasin B-activated human neutrophils; for inhibition at 3 µM: Neutrophil
# Source text: as §2, §3
# [8] = In vitro Franz cell skin absorption, pig skin; format: in vitro ADME; details: read-out: S value (dermal/transdermal selectivity index, skin deposition/flux)
# Experimental: as §1, with “After being washed with water, the skin sample was weighed and positioned in a vial with 1 mL methanol. MagNA Lyser (Roche) was used to homogenize the skin. The homogenate was centrifuged at 10,000× g for 10 min.” left out
# In the cutaneous absorption experiment, flavonoid deposition in the skin was estimated as the molar amount per mg of skin (nM/mg). In the case of the skin deposition from the saturated solution, the calibrated skin deposition (CSD) was measured as flavonoid deposition divided by the applied dose (saturated solubility). […] The permeability coefficient (PC) was calculated from the flux divided by the saturated solubility of the flavonoids. […]
# [9] = In vivo cutaneous tolerance (TEWL, histology) on nude mouse back; details: 6 mM topically daily for 7 days; for histology: SC layers: H&E, versus vehicle control; for ΔTEWL (treated skin minus aqueous vehicle control): nude mouse back
# Experimental: The 20% PEG400/pH 7.4 buffer loaded with flavonoids at 6 mM was topically applied daily (0.6 mL) on the nude mouse back for 7 days. The flavonoid-containing vehicle was replaced with a new one each day. After removal of the vehicle, the treated skin region was evaluated by Tewameter TM300 (Courage and Khazaka, Köln, Germany) to determine the transepidermal water loss (TEWL). Stained by hematoxylin and eosin (H&E), the treated skin was excised for histological examination after a 7-day flavonoid application.
# [10] = saturated solubility dose, skin type not separated
compound,measurement,setting,value
O=c1cc(-c2ccccc2)oc2cc(O)c(O)c(O)c12 [Baicalein],log K’,[1],0.73
same,logP at 24 h,[2],3.59 ± 0.08
same,solubility at 2 h,[3],7.7 ± 1.9 µM
same,calibrated skin deposition (CSD),[4]; [10],below the quantification limit
same,S value (CSD/PC),[4]; saturated solubility dose,0
same,skin deposition after the SC's removal,[5],0.2 nM/mg
same,inhibition at 3 µM,[6],77%
same,O2^•– Inhibition,[6]; 3 µM,77.48 ± 5.27%
same,inhibition at 3 µM,[7],12.2 ± 2.15%
O=C(O)[C@H]1O[C@@H](Oc2cc3oc(-c4ccccc4)cc(=O)c3c(O)c2O)[C@H](O)[C@@H](O)[C@@H]1O [Baicalin],log K’,[1],0.42
same,logP at 24 h,[2],0.89 ± 0.02
same,solubility at 2 h,[3],5320 ± 150 µM
same,inhibition at 3 µM,[6],77%
same,O2^•– Inhibition,[6]; 3 µM,75.73 ± 6.21%
same,O2^•– Inhibition,"[6]; listed as baicalin, 3 µM",76%
same,inhibition at 3 µM,[7],0%
same,Elastase Inhibition,[7],did not change
O=c1c(O)c(-c2ccc(O)cc2)oc2cc(O)cc(O)c12 [Kaempferol],solubility at 2 h,[3],190 ± 4.7 µM
same,"selectivity ratio at 24 h, 6 mM",[4],2.7
same,skin deposition,[4],0.11 nM/mg
same,permeability coefficient (PC),[4]; [10],neglected
same,S value (CSD/PC),[4]; saturated solubility dose,infinity
same,"selectivity ratio at 24 h, 6 mM",[8],1.5
same,histology: SC layers,[9],SC layers could be recovered
same,ΔTEWL (treated skin minus aqueous vehicle control),[9],reduced TEWL as compared to the vehicle control; also recorded: alleviated ΔTEWL
O=c1c(O)c(-c2cc(O)c(O)c(O)c2)oc2cc(O)cc(O)c12 [Myricetin],log K’,[1],0.34
same,logP at 24 h,[2],3.18 ± 0.07
same,solubility at 2 h,[3],530 ± 10 µM
same,S value (skin deposition/flux),[4],∞
same,flux,[4],near zero
same,permeability coefficient (PC),[4]; [10],neglected
same,S value (CSD/PC),[4]; saturated solubility dose,infinity
same,"Skin deposition, fold versus intact skin (SC-stripping)",[5],> 30 x
same,skin deposition after the SC's removal,[5],0.4 nM/mg
same,inhibition at 3 µM,[6],42.1 ± 6.22%
same,inhibition at 3 µM,[7],16.8 ± 4.76%
O=C1C[C@@H](c2ccc(O)cc2)Oc2cc(O)cc(O)c21 [Naringenin],fold more soluble than baicalein,[3]; PEG400/pH 7.4 buffer solution,470 fold
same,solubility at 2 h,[3],3620 ± 280 µM
same,skin deposition,[4],0.37 nM/mg
same,histology: SC layers,[9],SC layers could be recovered
same,ΔTEWL (treated skin minus aqueous vehicle control),[9],reduced TEWL as compared to the vehicle control
same,ΔTEWL (treated skin minus aqueous vehicle control),[9]; listed as naringenin,alleviated ΔTEWL
C[C@@H]1O[C@@H](O[C@H]2[C@H](Oc3cc(O)c4c(c3)O[C@H](c3ccc(O)cc3)CC4=O)O[C@H](CO)[C@@H](O)[C@@H]2O)[C@H](O)[C@H](O)[C@H]1O [Naringin],solubility at 2 h,[3],> 20000 µM
same,histology: SC layers,[9],SC layers could be recovered
O=c1c(O)c(-c2ccc(O)c(O)c2)oc2cc(O)cc(O)c12 [Quercetin],solubility at 2 h,[3],380 ± 2.5 µM
same,S value (skin deposition/flux),[4],∞
same,flux,[4],near zero
same,permeability coefficient (PC),[4]; [10],neglected
same,S value (CSD/PC),[4]; saturated solubility dose,infinity
same,"Skin deposition, fold versus intact skin (SC-stripping)",[5],> 30 x
same,skin deposition after the SC's removal,[5],1.2 nM/mg
same,"Skin deposition, fold versus intact skin (Protein removal)",[5]; deproteinized nude mouse skin,failed to change
C[C@@H]1O[C@@H](OC[C@H]2O[C@@H](Oc3c(-c4ccc(O)c(O)c4)oc4cc(O)cc(O)c4c3=O)[C@H](O)[C@@H](O)[C@@H]2O)[C@H](O)[C@H](O)[C@H]1O [Rutin],log K’,[1],0.24
same,solubility at 2 h,[3],1840 ± 40 µM
same,"selectivity ratio at 24 h, 6 mM",[4],1.3
same,"selectivity ratio at 24 h, 6 mM",[8],0.4
same,inhibition at 3 µM,[6],33.9 ± 8.67%
same,inhibition at 3 µM,[7],13.2 ± 3.39%
Kaempferol,O2^•– Inhibition,[6],26.49 ± 8.41%
same,Elastase Inhibition,[7],18.11 ± 9.01%
Naringenin,O2^•– Inhibition,[6]; 3 µM,19.72 ± 8.23%
same,O2^•– Inhibition,"[6]; listed as naringenin, 3 µM",20%
same,Elastase Inhibition,[7],17.97 ± 6.62%
Naringin,O2^•– Inhibition,[6],21.51 ± 2.53%
same,Elastase Inhibition,[7],13.89 ± 9.67%
Quercetin,O2^•– Inhibition,[6],26.44 ± 8.07%
same,Elastase Inhibition,[7]; 3 µM,29% and 28.67 ± 8.51%
